In patent US7585854B2, “Method for treating endometriosis” (Tochigi Institute of Clinical Pathology, priority 2000, dated 2009):
Counter-ions that a name gives are not always drawn.

Tested on: endometriosis model rats
Assay: Therapeutic effect in endometriosis model rats (uterine tissue autotransplanted to peritoneum; lesion observed by light and electron microscopy)
Assay type: in vivo, Sprague-Dawley rats (female)
Details: oral; for invasion of mast cells compared with Comparative Example 1 (non-treated model rats): 0.04 mg/kg bodyweight per day for 6 days from 24 hours after model preparation, lesion sampled at day 7; for therapy of endometriosis (overall conclusion) / apoptosis of fibroblast cells / proliferation of the interstitial cells: 0.04 mg/kg bodyweight per day for 6 days, day 7; for apoptosis of fibroblast cells / proliferation of the interstitial cells: light and electron microscope
Method: Endometriosis model rats were prepared by the method described in Michael W. Vernon et al., FERTILITY AND STERILITY, Vol. 44, No. 5, November 1985. That is, endometriosis model rats were prepared as follows: Sprague-Dawley rats (female) of 8 weeks old were acclimatized for 2 weeks under 12 hours light-dark condition. From each rat, right uterine horn was excised under general anesthesia with sevoflurane and ketamine hydrochloride, and a tissue piece sizing 5 mm×5 mm was prepared therefrom. The tissue piece was subjected to autotransplantation such that the endometrium surface is attached to peritoneum.
Seven days after the preparation of the model rats, at which the model lesion reached its peak, the peritoneum tissue including the graft up to the abdominal muscle was excised to obtain a lesion sample. From the thus obtained samples, light microscope specimens (hematoxylin-eosin staining, toluidine blue staining) and electron microscope specimens (uranium-lead double staining) were prepared, and observations with an light microscope (the magnifications were 4× for hematoxylineosin-stained specimens, and 20× for toluidine blue-stained specimens, respectively), and with an electron microscope were carried out as in Reference Example 1.
Endometriosis model rats were prepared by the same method as in Comparative Example 1. From 24 hours after the preparation of the endometriosis model rats, an antiallergic agent (trademark “Alesion Tablet” produced by Boehringer Ingelheim) containing epinastine hydrochloride as the active component was orally administered to the rats for 6 days at a dose of 0.04 mg/kg bodyweight per day in terms of epinastine hydrochloride. Seven days after the preparation of the model rats, at which the model lesion reached its peak, the peritoneum tissues including the graft up to the abdominal muscle were excised to obtain lesion samples.
The same procedures as in Example 1 were repeated except that an antiallergic agent containing ketotifen fumarate as the active component (trademark “Zaditen” produced by Ciba-Geigy Japan Limited) was administered in place of the antiallergic agent containing epinastine hydrochloride as an active component.
The same procedures as in Example 1 were repeated except that an antiallergic agent containing pranlukast hydrate as the active component (trademark “ONON CAPSULE” produced by ONO PHARMACEUTICAL CO.,LTD.) was administered in place of the antiallergic agent containing epinastine hydrochloride as an active component, and that the administration dose per day was 9 mg/kg in terms of pranlukast hydrate.

Row | Structure (SMILES) | invasion of mast cells compared with Comparative Example 1 (non-treated model rats) | therapy of endometriosis (overall conclusion) | apoptosis of fibroblast cells | proliferation of the interstitial cells
1 | NC1=NCC2c3ccccc3Cc3ccccc3N12 (centres unmarked) [epinastine, epinastine hydrochloride] | apparently reduced | effective | observed | prominent inhibition
2 | CN1CCC(=C2c3ccccc3CC(=O)c3sccc32)CC1 [ketofetin, ketotifen fumarate] | apparently reduced | effective | observed | prominent inhibition
